Measurements from patent US11407736B2 (priority 2019, dated 2022).
Where two headings read alike, the source gives them in different places.

Legend:
[1] = in vivo pharmacokinetics, plasma and brain exposure; conditions: for Kp: rodents
Description: Brain penetration may be assessed by evaluating free brain/plasma ratio (Bu/Pu) as measured in vivo pharmacokinetic studies in rodents.

[2] = test system: TNF-alpha induced hypothermia; conditions: dose of 30 mg/kg, according to WO 2014/125444; cited from earlier work
U937 cells = assay: U937 cell necroptosis assay (TNFa + zVAD, CellTiter-Glo); type: cell-based, human; conditions: Homo sapiens
Procedure, shortened: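 Necroptosis was induced with TNFa at 2 ng/mL final for 18 h at 37 °C, following 1 h compound pre-incubation in the presence of zVAD-fmk (60 uM for U937 plating medium, 40 uM for L929 medium). Luminescent CellTiter-Glo signal gave relative cell survival.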

L929 cells = assay: L929 cell necroptosis assay (TNFa + zVAD, CellTiter-Glo); type: cell-based, murine
Procedure, shortened: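 Necroptosis was read as CellTiter-Glo luminescence 18 hours after TNFa stimulation at 37° C, 5% CO2. Prior to that, L929 cells (10K/well, plated 18 h) received fresh medium with 40 uM zVAD-fmk plus 4-fold serially diluted compound.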

RIPK1 = RIPK1 (Homo sapiens (Human), UniProt Q13546); assay: RIPK1 ADP-Glo biochemical kinase assay; conditions: read-out: RIPK1 ADP-Glo Kinase (IC50)
Method: The final reaction volume was 5.0ul.
Adding 5 μl of ADP-Glo™ terminated the reaction.

[3] = U-937, read-out: U937 Zvad TNF CTG Recovery, U937, TNFa + zVAD (IC50), U937 cells, TNFa + zVAD

RIPK1, sequence (Q13546 whole entry, species assumed): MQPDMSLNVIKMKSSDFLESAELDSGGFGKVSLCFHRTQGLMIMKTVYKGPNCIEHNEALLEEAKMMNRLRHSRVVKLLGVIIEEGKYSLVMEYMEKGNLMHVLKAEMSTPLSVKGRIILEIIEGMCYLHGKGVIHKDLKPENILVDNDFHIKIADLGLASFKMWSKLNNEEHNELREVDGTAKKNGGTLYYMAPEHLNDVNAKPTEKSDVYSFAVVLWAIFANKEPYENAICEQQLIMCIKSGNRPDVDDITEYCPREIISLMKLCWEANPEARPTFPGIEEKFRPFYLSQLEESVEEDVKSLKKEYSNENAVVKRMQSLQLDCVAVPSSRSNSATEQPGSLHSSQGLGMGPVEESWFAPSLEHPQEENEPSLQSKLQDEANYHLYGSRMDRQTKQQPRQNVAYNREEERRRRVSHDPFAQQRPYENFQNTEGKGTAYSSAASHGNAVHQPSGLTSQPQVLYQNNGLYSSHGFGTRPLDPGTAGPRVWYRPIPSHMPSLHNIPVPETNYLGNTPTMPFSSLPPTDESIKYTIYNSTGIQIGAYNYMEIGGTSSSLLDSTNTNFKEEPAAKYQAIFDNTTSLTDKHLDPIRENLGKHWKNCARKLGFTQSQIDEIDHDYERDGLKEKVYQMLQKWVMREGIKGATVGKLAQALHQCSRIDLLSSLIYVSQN

SMILES | BRAIN AUC0-6 [1] | Kp ([1]; in vivo) | Kp ([1]; brain/plasma) | IC50 (RIPK1) [µM] | other results
CN1C(=O)C(NC(=O)n2cc(Cc3ccccc3)cn2)CCc2ccc(N3CC4(CCOCC4)C3)cc21 (racemic) [Compound I-182, (±)-4-Benzyl-N-(1-methyl-2-oxo-8-(7-oxa-2-azaspiro[3.5]nonan-2-yl)-2,3,4,5-tetrahydro-1H-benzo[b]azepin-3-yl)-1-pyrazole-1-carboxamide] | 157 | 0.56 | – | – | –
CN1C(=O)[C@@H](NC(=O)c2nnc(Cc3ccccc3)[nH]2)COc2ccccc21 [(S)-5-benzyl-N-(5-methyl-4-oxo-2,3,4,5-tetrahydrobenzo[b][1,4]oxazepin-3-yl)-4H-1,2,4-triazole-3-carboxamide] | – | – | – | – | inhibition of TNF-alpha induced hypothermia [2]: 93%
CN1C(=O)[C@@H](NC(=O)c2cc(Oc3ccccc3)ccn2)COc2ccc(C#CC3(C)COC3)cc21 [Compound I-127, (S)—N-(5-methyl-7-((3-methyloxetan-3-yl)ethynyl)-4-oxo-2,3,4,5-tetrahydrobenzo[b][1,4]oxazepin-3-yl)-4-phenoxypicolinamide] | 160 | – | 0.98 | 0.0296 | IC50 (U937 cells; [3]): 0.0003 µM; IC50 (L929 cells; Mus musculus, L929, read-out: L929-CTG-recovery, L929, TNFa + zVAD (IC50), L929 cells, TNFa + zVAD): 0.0406 µM
CN1C(=O)[C@@H](NC(=O)c2cc(Oc3ccccc3)ccn2)COc2ccc(C#CC(C)(C)N)cc21 [Compound I-139, (S)—N-(7-(3-amino-3-methylbut-1-yn-1-yl)-5-methyl-4-oxo-2,3,4,5-tetrahydrobenzo[b][1,4]oxazepin-3-yl)-4-phenoxypicolinamide] | 1100 | – | 1.29 | 0.0212 | IC50 (U937 cells; [3]): 0.0077 µM; IC50 (L929 cells; read-out: L929-CTG-recovery, L929, TNFa + zVAD (IC50), L929 cells, TNFa + zVAD): 0.538 µM
COC1(C#Cc2ccc3c(c2)N(C)C(=O)[C@@H](NC(=O)c2cc(Oc4ccccc4)ccn2)CO3)CN(C)C1 [Compound I-155, (S)—N-(7-((3-methoxy-1-methylazetidin-3-yl)ethynyl)-5-methyl-4-oxo-2,3,4,5-tetrahydrobenzo[b][1,4]oxazepin-3-yl)-4-phenoxypicolinamide] | 373 | – | 1.7 | 0.0246 | IC50 (U937 cells; U-937, U937 cells, TNFa + zVAD, read-out: U937 Zvad TNF CTG Recovery, U937, TNFa + zVAD (IC50)): 0.0013 µM; IC50 (L929 cells; Mus musculus, L929, L929 cells, TNFa + zVAD, read-out: L929-CTG-recovery, L929, TNFa + zVAD (IC50)): 0.313 µM
CN1C(=O)[C@@H](NC(=O)n2cc(Cc3ccc(F)cc3)cn2)COc2ccc(C#CC3(C)COC3)cc21 [Compound I-180, (S)-4-(4-fluorobenzyl)-N-(5-methyl-7-((3-methyloxetan-3-yl)ethynyl)-4-oxo-2,3,4,5-tetrahydrobenzo[b][1,4]oxazepin-3-yl)-1H-pyrazole-1-carboxamide] | 251 | – | 2.44 | – | –
CN1C(=O)[C@@H](NC(=O)c2nn(Cc3ccccc3)cc2F)COc2ccc(N3CCC4(CCOCC4)C3)cc21 [Compound I-181, (S)-1-Benzyl-4-fluoro-N-(5-methyl-4-oxo-7-(8-oxa-2-azaspiro[4.5]decan-2-yl)-2,3,4,5-tetrahydrobenzo[b][1,4]oxazepin-3-yl)-1H-pyrazole-3-carboxamide] | 456 | 0.46 | – | – | –
Cc1cccc(C#Cc2ccc3c(c2)N(C)C(=O)[C@@H](NC(=O)n2cc(Cc4ccc(F)cc4)cn2)CO3)n1 [Compound I-183, (S)-4-(4-fluorobenzyl)-N-(5-methyl-7-((6-methylpyridin-2-yl)ethynyl)-4-oxo-2,3,4,5-tetrahydrobenzo[b][1,4]oxazepin-3-yl)-1H-pyrazole-1-carboxamide] | 326 | – | 0.9 | – | –
CN1C(=O)[C@@H](NC(=O)n2cc(Cc3ccc(F)cc3)cn2)COc2ccc(N3CC4(CCOCC4)C3)cc21 [Compound I-184, (S)-4-(4-fluorobenzyl)-N-(5-methyl-4-oxo-7-(7-oxa-2-azaspiro[3.5]nonan-2-yl)-2,3,4,5-tetrahydrobenzo[b][1,4]oxazepin-3-yl)-1H-pyrazole-1-carboxamide] | 731 | 0.93 | – | – | –
